Here are results for 3 molecules from PMC6316600, “Analgesic Activity of Acid-Sensing Ion Channel 3 (ASIС3) Inhibitors: Sea Anemones Peptides Ugr9-1 and APETx2 versus Low Molecular Weight Compounds” (Marine Drugs, 2018).

“Also recorded” adds a separate entry of the source. Bridge positions count the residues as written; N and C are the ends. Peptide text beside a SMILES is read from it.

In data set [1] the test system is mice. Briefly: Open field test. The class given is in vivo, CD-1 mice. As to conditions: 1 mg/kg intramuscular, 4 h before; n = 6–7. The protocol: An open field test was carried out on mice to estimate the possible sedative effects of compounds administration. No statistically significant changes were detected between ASIC3 antagonist-treated groups and the control animals group in 5-min observations of 12 parameters.
Figure 2 Open field experiments on mice. Administration of compounds at a 1 mg/kg dose intramuscularly was done 4 h before of the measurements. (A) Travelling distance and (B) locomotion activity presented as mean ± SEM for 5-min recording period (n = 6–7).
(§1) Adult male CD-1 mice (Animal Breeding Facility Branch of Shemyakin-Ovchinnikov Institute of Bioorganic Chemistry, Russian Academy of Sciences, Pushchino, Russia) weighing 20–25 g were used. Animals that originally passed clinical examination that confirmed no deviations in health were divided into groups (at least eight male mice per group) using the principle of randomization. The average body weight of animals in each group was not statistically different between groups. Animals were housed at room temperature (23 ± 2 °C) and subjected to a 12-h light-dark cycle with food and water available ad libitum. All experiments were performed after receiving approval from the Animal Care and Use Committee of the Branch of the Institute of Bioorganic Chemistry, Russian Academy of Sciences (IBCh RAS) (Pushchino, Russia Federation). The samples were administered intramuscularly 2 h before testing (4 h in the open field test). The initial dose of 1 mg/kg was investigated for all samples, which was further reduced 5, 50, and 500 times for peptides.
In the locomotion measurements, exploration and anxiety were evaluated in the motor activity test on a computerized TSE Multi Conditioning System (TSE Systems GmbH, Bad Homburg, Germany). Four hours after the administration of the sample, the measurement was made, which lasted for 3 min. […]
The data significance in animal tests was determined by an analysis of variance followed by a Tukey’s test. […]

Data set [2] concerns mice. Briefly: CFA-induced thermal hyperalgesia. The class given is in vivo, CD-1 mice. As to conditions: for Effect in CFA test at lowest dose / Dose dependence of effect, thermal hyperalgesia / Dose of maximal effect, thermal hyperalgesia / Reversal of thermal hyperalgesia, 1 mg/kg compared with 0.001–0.002 mg/kg / Thermal hyperalgesia result (in words): intramuscular; for Effect confirmed in independent experiment: sevanol 0.01 mg/kg, Ugr9-1 0.02 mg/kg, data not shown. The protocol:
CFA-induced thermal hyperalgesia is a result of different inflammatory pathways’ action on thermal sensitivity of the paw. Injection of CFA into the hind paw provokes increased sensitivity to noxious mechanical and thermal stimuli together with swelling of the paw due to the inflammatory process. […] For APETx2 (Figure 4B), sevanol (Figure 4C), and Ugr9-1 (Figure 4D), the dose dependency of the analgesic effect was evaluated.
Figure 4 Effect of ligands on the CFA-induced thermal hyperalgesia test. Test was performed 2 h after intramuscular administration of ASIC3 antagonists. (A) Comparison between ligands at the dose of 1 mg/kg; (B–D) Dose-dependent chart of ligands’ effect. […] Results are presented as mean ± SEM (n = 7–8). * p < 0.05, ** p < 0.01, *** p < 0.001 versus saline group (ANOVA followed by a Tukey’s test).
as §1
CFA suspended in an oil/saline (1:1) emulsion was injected into the dorsal surfaces of the left hind paws of mice (20 µL/paw) 24 h before the samples’ intramuscular injection. The control mice received 20 µL of saline (intraplantar). The paw withdrawal latencies to thermal stimulation (53 °C) were measured 2 h after the sample injection. The paw diameter was evaluated before the CFA injection, before the samples and saline administration, and 2, 4, and 24 h after the administration using a digital calliper.
The data significance in animal tests was determined by an analysis of variance followed by a Tukey’s test. Data are presented as the mean ± SEM.

The subject of the next data set is animal models of pain. As to conditions: cited from earlier work.
The next data set concerns ASIC1a. Particulars: cited from earlier work. An excerpt:
(§2) An inhibition of ASIC3 was reported to be an attractive approach to producing analgesia. […] Other nonspecific substances can also influence ASIC3 activity.

For the next data set, the system named is ASIC3. As to conditions: cited from earlier work.
Source text: as §2

For a further data set, the system named is acetic acid writhing. As to conditions: cited from earlier work. As to the method:
ASIC3 channels play an important role in the perception and maintenance of pain signals in peripheral neurons. Several ligands with inhibitory properties were found for this receptor, each of which was able to induce analgesia in animal tests. The most well-known inhibitor APETx2 in various studies has been tested on models of acid-induced muscle pain model, CFA-induced inflammatory pain model (at doses of 0.07, 0.22 and 2.2 µM). Ugr9-1 was studied in models of CFA-induced thermal hyperalgesia and acetic acid writhing test (at doses of 0.5, 0.1, and 0.01 mg/kg). […] The nonspecific actions on other cellular targets and the changes of ASIC3 involvement in the inflammatory process induced by the high antagonists’ concentration for 2 h are suspected. We conclude that the inhibition of both components of ASIC3 currents could be beneficial but could be reversed by hormesis in high doses and during a long exposure to ...

Data set [3] deals with CFA-induced thermal hyperalgesia. As to conditions: cited from earlier work. The protocol:
An inhibition of ASIC3 was reported to be an attractive approach to producing analgesia. […] Other nonspecific substances can also influence ASIC3 activity. […] Several ligands with inhibitory properties were found for this receptor, each of which was able to induce analgesia in animal tests. The most well-known inhibitor APETx2 in various studies has been tested on models of acid-induced muscle pain model, CFA-induced inflammatory pain model (at doses of 0.07, 0.22 and 2.2 µM). Ugr9-1 was studied in models of CFA-induced thermal hyperalgesia and acetic acid writhing test (at doses of 0.5, 0.1, and 0.01 mg/kg). […] The nonspecific actions on other cellular targets and the changes of ASIC3 involvement in the inflammatory process induced by the high antagonists’ concentration for 2 h are suspected. We conclude that the inhibition of both components of ASIC3 currents could be beneficial but could be reversed by hormesis in high doses and during a long exposure to ...

For data set [4] the following is noted: cited from earlier work. From the text:
Several explanations could be proposed. First, the result of partial ASIC1a inhibition is unpredictable. Second, better bioavailability of sevanol compared with Ugr9-1 can enhance the effect. Peptides from sea anemones have rather shor ...

Where [5] appears, read: intravenous, 30 min before testing.

As to `O=C(O)C[C@H](C(=O)O)[C@@H](OC(=O)C1=Cc2cc(O)c(O)cc2[C@@H](c2ccc(O)c(O)c2)[C@@H]1C(=O)O[C@@H](C(=O)O)[C@H](CC(=O)O)C(=O)O)C(=O)O` [sevanol], in the data set with mice [1], the “Travelled distance, time spent freezing, distance in the central area versus control” value is “each of these differences was nonsignificant”. In the data set on mice [2] (0.001 mg/kg (sevanol), 2 h before), the “Effect in CFA test at lowest dose” value was “absence of the effect”. In addition, in the data set on mice [2] (2 h before, n = 7–8), the “Dose dependence of effect, thermal hyperalgesia” value was “bell-shaped; also recorded: nonlinear dose response”; the “Dose of maximal effect, thermal hyperalgesia” value worked out at 0.01 mg/kg; the “Reversal of thermal hyperalgesia, 1 mg/kg compared with 0.001–0.002 mg/kg” value is given as “did not differ significantly”; the “Thermal hyperalgesia result (in words)” value was “reversed CFA-induced thermal hyperalgesia and prolonging withdrawal latency of the inflamed hind paw on a hot plate”. In addition, in the data set on mice [2], the “Effect confirmed in independent experiment” value is given as “confirmed in the independent experiment”. The “Analgesic and anti-inflammatory effect” value in the data set on animal models of pain (mice, 1–10 mg/kg) is “pronounced analgesic and anti-inflammatory activity”. Moreover, the “Inhibition of ASIC1a” value in the data set on ASIC1a is on record as “able to inhibit ASIC1a”. In addition, the “Inhibition of transient and sustained ASIC3 currents” value with ASIC3 was “inhibited the amplitude of transient and sustained ASIC3 currents”.

For `O=C(O)Cc1ccccc1Nc1c(Cl)cccc1Cl` [diclofenac, reference compound], the “Reversal of thermal hyperalgesia, comparison at 1 mg/kg” value in the data set on mice [2] (1 mg/kg intramuscular, 2 h before, hot plate 53 °C, n = 7–8) was “equal potency in the reversal of thermal hyperalgesia, which exceeded the analgesic potency of sevanol and Ugr9-1”. Further, the “Effect on acetic acid-induced writhing” value in the data set with acetic acid writhing (20 mg/kg i.p.) is “inhibited acetic acid-induced writhing”. For the same molecule, the “Effect on CFA-induced thermal hyperalgesia” value in data set [3] (100 mg/kg i.p.) is on record as “significantly reduced CFA-induced thermal hyperalgesia”. Further, in data set [4], the Circulating half-life entry was “about 2 h” and the “Time of final elimination from the blood flow” value was 10 h. In addition, in the data set on ASIC3 (sensory neurons and heterologous-expressed ASIC3), the “Inhibition of ASIC3 / ASICs currents” value is “inhibit ASICs currents directly on sensory neurons and heterologous-expressed ASIC3 channels”.

For the molecule `CC[C@H](C)[C@H](N)C(=O)N[C@@H](CO)C(=O)N[C@H](C(=O)N[C@@H](CC(=O)O)C(=O)N1CCC[C@H]1C(=O)N1CCC[C@H]1C(=O)N[C@H]1CSSC[C@@H](C(=O)NCC(=O)N[C@@H](C)C(=O)N[C@H](C(=O)O)C(C)C)NC(=O)CNC(=O)[C@H](Cc2ccc(O)cc2)NC(=O)[C@H](C)NC(=O)[C@H](CC(=O)O)NC(=O)[C@H](Cc2ccc(O)cc2)NC(=O)[C@H](C(C)C)NC(=O)[C@@H]2CSSC[C@H](NC(=O)[C@H](Cc3ccccc3)NC(=O)[C@H](CCCNC(=N)N)NC1=O)C(=O)N[C@@H](Cc1ccc(O)cc1)C(=O)N[C@@H](Cc1c[nH]cn1)C(=O)N[C@@H](CCCNC(=N)N)C(=O)N[C@@H](CC(=O)O)C(=O)NCC(=O)N[C@@H](CO)C(=O)NCC(=O)N[C@@H](CC(N)=O)C(=O)N2)[C@@H](C)CC` [Ugr9-1] (H-ISIDPPCRFCYHRDGSGNCVYDAYGCGAV-OH; disulfide 7-26, 10-19; N-terminus and C-terminus assumed), the “Travelled distance, time spent freezing, distance in the central area versus control” value in the data set on mice [1] is on record as “each of these differences was nonsignificant”. In the data set with mice [2] (0.002 mg/kg (Ugr9-1), 2 h before), the “Effect in CFA test at lowest dose” value is on record as “absence of the effect”. Besides, in the data set on mice [2] (2 h before, n = 7–8), the “Dose dependence of effect, thermal hyperalgesia” value is recorded as “bell-shaped; also recorded: nonlinear dose response”; the “Dose of maximal effect, thermal hyperalgesia” value was determined as 0.02 mg/kg; the “Reversal of thermal hyperalgesia, 1 mg/kg compared with 0.001–0.002 mg/kg” value is listed as “did not differ significantly”; the “Thermal hyperalgesia result (in words)” value is “reversed CFA-induced thermal hyperalgesia and prolonging withdrawal latency of the inflamed hind paw on a hot plate”. Also, the “Effect confirmed in independent experiment” value with mice [2] is recorded as “confirmed in the independent experiment”. The “Efficacy in acetic acid writhing test” value in the data set with acetic acid writhing (setting [5]) was ~ 50%. Also, the “Dose dependence, CFA thermal hyperalgesia test” value in data set [3] (setting [5]) was “clearly dose-dependent”. The Analgesic effect entry in the data set on animal models of pain (0.1–0.5 mg/kg) is “significant analgesic effect”. The “Inhibition of ASIC3 current components” value in the data set on ASIC3 is listed as “inhibit both components of the ASIC3 current”.
